Assay results from patent US20210109080A1, “Cell-Based Biosensor for Early Alzheimer's Disease Detection” (University of South Carolina, priority 2019, published 2021).
Where a SMILES comes first, the peptide text is derived from it. The star is where a group is joined. Cbz = O=C(OCc1ccccc1)*

Test system: HBMVEC monolayers
Experiment: FITC-BSA transendothelial transfer / permeability coefficient (Pe) across HBMVEC monolayers
Assay type: cell-based, human
Details: 3 μM MG-132 pre-treatment 30 min, then 5 μM MIX 24 h
Protocol: HBMVEC monolayers were incubated alone (white circles), with 0.3-10 μM Aß aggregates (grey circles), or with TNF-α (positive control, black circles). (a) Following 24-h treatment, transfer of FITC-BSA from the apical to basolateral chamber was monitored via florescence. Error bars represent SEM, n=3. Increased permeability is evidenced by a faster transfer rate, or steeper slope. Following treatment with 5 μM Aß aggregates, the transfer rate is increased by approximately 10%. (b) TEER was monitored following addition of treatments (indicated by arrow). […] In the absence of Aß aggregates, TEER maintains a plateau, decreasing by less than 8% over 7 days.
HBMVEC monolayers were incubated alone (CONT, white circles), with Aß monomer (MON, diamonds), with Aß aggregate mixture containing small aggregates (MIX, circles), or with Aß fibrils (FIB, triangles). (a) Using FITC-BSA transfer rates, Pe was determined after 24-h treatment with Aß concentrations of 5 μM (white bars) and 10 μM (black bars). […] (b) TEER was monitored following addition of treatments at a concentration of 5 μM (indicated by arrow).
Pe is determined from the transfer rate of FITC-BSA and reported relative to untreated monolayers. […]
(a) Confluent HBMVEC monolayers were incubated for 30 min with 100 pM, 1 nM, 10 nM, or 1 μM isolated small soluble Aß aggregates (SOL) (RH=43-54 nm). […] Using FITC-BSA transfer rates, Pe was determined.

`CC(C)C[C@@H](C=O)NC(=O)[C@H](CC(C)C)NC(=O)[C@H](CC(C)C)NC(=O)OCc1ccccc1` [MG-132] (Cbz-Leu-Leu-Leu-aldehyde) was tested, and the “effect on Aß-induced increase in Pe” value was “Abrogation of the Aß-induced increase in Pe”.
